Legend:
MOLM14 cells = assay: Proliferation assay, spheroid-like growth, MOLM14 (MLL-AF9 rearranged); type: cell-based, human; details: Homo sapiens, MOLM-14, 192 h, 8 days, confluence as measure of spheroid size, read-out: spheroid assay_OneTime MOLM14 IC50
Experimental: The anti-proliferative effect of menin/MLL protein/protein interaction inhibitor test compounds was assessed in human leukemia cell lines. The cell line MOLM14 harbors a MLL translocation and expresses the MLL fusion proteins MLL-AF9, respectively, as well as the wildtype protein from the second allele. […] KO-52 was used as a control cell line containing two MLL (KMT2A) wildtype alleles in order to exclude compounds that display general cytotoxic effects.
MOLM14 cells were cultured in RPMI-1640 (Sigma Aldrich) supplemented with 10% heat-inactivated fetal bovine serum (HyClone), 2 mM L-glutamine (Sigma Aldrich) and 50 μg/ml gentamycin (Gibco). KO-52 cell lines were propagated in alpha-MEM (Sigma Aldrich) supplemented with 20% heat-inactivated fetal bovine serum (HyClone), 2 mM L-glutamine (Sigma Aldrich) and 50 μg/ml gentamycin (Gibco).
In order to assess the anti-proliferative effects, 200 MOLM14 cells, or 300 KO-52 cells were seeded in 200 μl media per well in 96-well round bottom, ultra-low attachment plates (Costar, catalogue number 7007). Cell seeding numbers were chosen based on growth curves to ensure linear growth throughout the experiment. Test compounds were added at different concentrations and the DMSO content was normalized to 0.3%. Cells were incubated for 8 days at 37° C. and 5% CO2. Spheroid like growth was measured in real-time by live-cell imaging (IncuCyteZOOM, Essenbio, 4× objective) acquiring images at day 8. Confluence (%) as a measure of spheroid size was determined using an integrated analysis tool.
In order to determine the effect of the test compounds over time, the confluence in each well as a measure of spheroid size, was calculated. Confluence of the highest dose of a reference compound was used as baseline for the LC (Low control) and the confluence of DMSO treated cells was used as 0% cytotoxicity (High Control, HC).
Absolute IC50 values were calculated as percent change in confluence as follows:
LC=Low Control: cells treated with e.g. 1 μM of the cytotoxic agent staurosporin, or e.g. cells treated with a high concentration of an alternative reference compound
GraphPad Prism (version 7.00) was used to calculate the IC50. Dose-response equation was used for the plot of % Effect vs Log 10 compound concentration with a variable slope and fixing the maximum to 100% and the minimum to 0%.

[1] = target: T1, menin/MLL (terbium chelate-labeled menin, FITC-MBM1 peptide) (Homo sapiens, UniProt O00255, T541A); assay: Menin/MLL homogenous time-resolved fluorescence (HTRF) assay; type: binding; details: 30 min incubation
T1 construct: Menin (a.a 1-610-6xhis tag)
T1 sequence (O00255 with tags, fused parts or gaps T541A): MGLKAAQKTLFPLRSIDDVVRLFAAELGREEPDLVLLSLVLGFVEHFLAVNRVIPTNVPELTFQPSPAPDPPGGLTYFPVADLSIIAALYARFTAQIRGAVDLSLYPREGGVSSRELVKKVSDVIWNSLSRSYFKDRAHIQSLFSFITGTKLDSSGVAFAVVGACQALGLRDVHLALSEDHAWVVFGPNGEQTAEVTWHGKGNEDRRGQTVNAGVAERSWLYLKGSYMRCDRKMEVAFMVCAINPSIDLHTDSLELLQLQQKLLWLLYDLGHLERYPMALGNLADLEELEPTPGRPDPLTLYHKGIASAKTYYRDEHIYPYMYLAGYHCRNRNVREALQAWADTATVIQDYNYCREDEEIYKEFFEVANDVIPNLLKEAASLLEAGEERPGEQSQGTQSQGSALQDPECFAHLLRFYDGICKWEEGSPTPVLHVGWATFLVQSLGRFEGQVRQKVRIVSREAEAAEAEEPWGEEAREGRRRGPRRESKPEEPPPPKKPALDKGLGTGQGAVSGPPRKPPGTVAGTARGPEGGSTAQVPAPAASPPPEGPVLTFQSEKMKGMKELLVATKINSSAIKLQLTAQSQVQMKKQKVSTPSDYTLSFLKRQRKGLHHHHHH
Summary of the method: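 Percent inhibition, calculated from the 520/490 nm HTRF ratio against high and low controls, was fitted for IC50 with a 0.1 nM detection limit. Reactions held 200 pM Tb-menin and 75 nM FITC-MBM1 in pH 7.5 Tris buffer with 0.5% DMSO.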

SMILES	IC50 (MOLM14 cells)	IC50 [1]
CC(C)[C@@H]([C@H]1C[C@]2(COC(=O)N2)C1)N1CC2(CCN(c3ncnnc3Oc3ccc(F)cc3-c3cnncc3C3CC3)C2)C1 (single isomer, unassigned) [Compound 323]	53 nM	0.2 nM
CC(C)C([C@H]1C[C@@H](Nc2nnc(N)s2)C1)N1CC2(CCN(c3ncnnc3Oc3ccc(F)cc3-c3cncnc3C3CC3)C2)C1 (single isomer, unassigned) [Compound 488]	4 nM	0.15 nM
CC(C)C([C@H]1C[C@@H](Nc2ncccn2)C1)N1CC2(CCN(c3ncnnc3Oc3ccc(F)cc3-c3cncnc3C3CC3)C2)C1 (some centres unmarked) [Compound 192]	1040 nM	4.8 nM
CC(C)[C@H]([C@H]1C[C@@H](N2CCC3(CNC(=O)O3)C2)C1)N1CC2(CCN(c3ncnnc3Oc3ccc(F)cc3-c3nnccc3C3CC3)C2)C1 (single isomer, unassigned) [Compound 328]	33 nM	0.1 nM
CCOC(=O)c1coc(N[C@H]2C[C@@H]([C@@H](C(C)C)N3CC4(CCN(c5ncnnc5Oc5ccc(F)cc5-c5cncnc5C5CC5)C4)C3)C2)n1 (single isomer, unassigned) [Compound 480]	6 nM	0.15 nM
CC(C)[C@H]([C@H]1C[C@@H](Nc2cnnc(-c3ccn[nH]3)c2)C1)N1CC2(CCN(c3ncnnc3Oc3ccc(F)cc3-c3cncnc3C3CC3)C2)C1 (single isomer, unassigned) [Compound 424]	4 nM	0.17 nM
CCOC(=O)c1sc(N[C@H]2C[C@@H](C(C(C)C)N3CC4(CCN(c5ncnnc5Oc5ccc(F)cc5-c5cncnc5C5CC5)C4)C3)C2)nc1C (single isomer, unassigned) [Compound 483]	17 nM	0.07 nM
CNC(=O)c1nnc(N[C@H]2C[C@@H]([C@@H](C(C)C)N3CC4(CCN(c5ncnnc5Oc5ccc(F)cc5-c5cncnc5C5CC5)C4)C3)C2)s1 (single isomer, unassigned) [Compound 442]	4 nM	0.21 nM
CC(C)C([C@H]1C[C@@H](Nc2n[nH]c3ncncc23)C1)N1CC2(CCN(c3ncnnc3Oc3ccc(F)cc3-c3cncnc3C3CC3)C2)C1 (single isomer, unassigned) [Compound 458]	27 nM	0.16 nM
C[C@@H]([C@H]1C[C@@H](N)C1)N1CC2(CCN(c3ncnnc3Oc3ccc(F)cc3-c3cncnc3C3CC3)C2)C1 (single isomer, unassigned) [Compound 441]	680 nM	0.92 nM
CC(C)[C@H]([C@H]1C[C@@H](N2CCNC(=O)C2)C1)N1CC2(CCN(c3ncnnc3Oc3ccc(F)cc3-c3cncnc3C3CC3)C2)C1 (single isomer, unassigned) [Compound 240]	270 nM	1.9 nM
CNC(=O)c1coc(N[C@H]2C[C@@H](C(C(C)C)N3CC4(CCN(c5ncnnc5Oc5ccc(F)cc5-c5cncnc5C5CC5)C4)C3)C2)n1 (single isomer, unassigned) [Compound 438]	4 nM	0.16 nM
CC(C)[C@H]([C@H]1C[C@@H](N2CCC3(CCO3)C2)C1)N1CC2(CCN(c3ncnnc3Oc3ccc(F)cc3-c3cncnc3C3CC3)C2)C1 (single isomer, unassigned) [Compound 212]	8 nM	0.2 nM
CC(=O)N[C@H]1[C@@H]2CN([C@H]3C[C@@H]([C@H](C(C)C)N4CC5(CCN(c6ncnnc6Oc6ccc(F)cc6-c6cnc(C)nc6C6CC6)C5)C4)C3)C[C@@H]21 [Compound 390]	4 nM	0.18 nM
CC(C)C([C@H]1C[C@@H](NC(=O)OC(C)(C)C)C1)N1CC2(CCN(c3ncnnc3Oc3ccc(F)cc3-c3cncnc3C3CC3)C2)C1 (single isomer, unassigned) [Compound 491a]	4.9 nM	0.13 nM
CNC(=O)Nc1cc(N[C@H]2C[C@@H](C(C(C)C)N3CC4(CCN(c5ncnnc5Oc5ccc(F)cc5-c5cncnc5C5CC5)C4)C3)C2)ccn1 (single isomer, unassigned) [Compound 421]	< 1.8 nM	0.13 nM
